The results in this text go back to patent publication US12116358B2, “Substituted indoles and methods of use thereof” (EPIZYME, INC., priority 2018, dated 2024).

A value given as a limit tells only on which side of the number the result lay.

The test system of the first test is H3K36me3 in A549 cells. Kind of test: In-Cell Western (ICW) assay of SETD2 inhibitors (A549 assay). Type of test: cell-based, human. To be noted: A549 cells; read-out: SETD2 A549. In outline:
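A549 cells seeded at 4,000/well onto compound and incubated 3 days at 37° C. Methanol-fixed cells stained overnight at 4° C with anti-H3K36me3 (1:1000), then IRDye 800CW secondary with DRAQ5 DNA counterstain. Plates read by Licor imaging at 700 and 800 channels.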
Consider `CC(=O)N(C(C)C)C1CCN(C2CCC[C@@H](NC(=O)c3cc4c(F)ccc(C)c4[nH]3)C2)C1` (some centres unmarked) [compound 862], for which the IC50 is > 2000 nM.
As for `Cc1ccc(F)c2cc(C(=O)Nc3cc(F)cc(C4CCN(C5CCN(C)C5=O)C4)c3)[nH]c12` (centres unmarked) [compound 230], the IC50 was determined as 500 nM.
For the compound `CCN1CCN(c2cccc(NC(=O)c3cc4c(F)ccc(C)c4[nH]3)c2)CC1=O` [compound 88], the IC50 was determined as 200 nM.
On to `Cc1ccc(F)c2cc(C(=O)Nc3cccc4cccnc34)[nH]c12` [compound 609], for which the IC50 was > 25000 nM.
Regarding `CC(=O)N1CC2CC1CN2C1CCCC(NC(=O)c2cc3c(F)ccc(C)c3[nH]2)C1` (centres unmarked) [compound 937], the IC50 was > 2000 nM.
With `Cc1ccc(F)c2cc(C(=O)Nc3ccc4cnc(CN5CCN(C)CC5)cc4c3)[nH]c12` [compound 409], the IC50 stood at 3000 nM.
Regarding `Cc1ccc(F)c2cc(C(=O)NC3CCCC(N4CCn5c(c[nH]c5=O)C4)C3)[nH]c12` (centres unmarked) [compound 1166], the IC50 is > 2000 nM.
Still for that read-out and setting: the same measure for `COCCN(C(C)=O)C1CCN(C2CCCC(NC(=O)c3cc4c(F)ccc(C)c4[nH]3)C2)C1` (centres unmarked) [compound 843]: 800 nM.
For the compound `Cc1ccc(F)c2cc(C(=O)Nc3cccc(N4CCN(C(=O)C5CC5)CC4)c3)[nH]c12` [compound 93], the IC50 came to 200 nM.
With `Cc1ccc(F)c2cc(C(=O)Nc3cc(F)cc(N4CCC(N5CCCC5=O)C4)c3)[nH]c12` (centres unmarked) [compound 18], the IC50 is 60 nM.
For `Cc1ccc(F)c2cc(C(=O)Nc3cccc(N4CCC(N5CCC(N)CC5)C4)c3)[nH]c12` (centres unmarked) [compound 347], the IC50 came out at 1900 nM.
With `Cc1cccnc1C(NC(=O)c1cc2cccc(C)c2[nH]1)C1CCC1` (centres unmarked) [compound 513], the IC50 stood at 17400 nM.
With `CC(=O)N1CCN(c2cccc(NC(=O)c3cc4c(F)ccc(C)c4[nH]3)c2)CC1C(F)(F)F` (centres unmarked) [compound 77], the IC50 was determined as 200 nM.
Take `Cc1ccc(F)c2cc(C(=O)Nc3cc(F)cc([C@H]4CC[C@@H](N(C)C)CC4)c3)[nH]c12` [compound 69]: the IC50 was determined as 200 nM.
`Cc1ccc(F)c2cc(C(=O)Nc3cccc(N4CCC5(CC4)CN(CC(F)(F)F)C5)c3)[nH]c12` [compound 110]: the IC50 is 200 nM.
As to `Cc1ccc(F)c2cc(C(=O)Nc3cccc(N4CCC(N(C)C)(C(F)(F)F)CC4)c3)[nH]c12` [compound 375], the IC50 is > 2000 nM.
For `Cc1cccnc1C(CN1CCOCC1)N(C)C(=O)c1cc2cccc(C)c2[nH]1` (centres unmarked) [compound 601], the IC50 is > 25000 nM.
Still for that read-out and setting: next, `Cc1ccc(F)c2cc(C(=O)NC3CCCC(N4CCN5C(=O)COCC5C4)C3)[nH]c12` (centres unmarked) [compound 1141]: 1300 nM.
For `CC(=O)N1CCN([C@@H]2CCC[C@@H](NC(=O)c3cc4cccc(C)c4[nH]3)C2)CC1` [compound 857], the IC50 was > 2000 nM.
Same read-out and setting: the same measure for `Cc1ccc(F)c2cc(C(=O)Nc3cccc(-c4cc5ccccn5n4)c3)[nH]c12` [compound 354]: > 2000 nM; for `Cc1cccc2cc(C(=O)NC3CC(NC(=O)CCN)C3)[nH]c12` (centres unmarked) [compound 597]: > 25000 nM.
On to `CC(=O)N1CCN(C2COCC(NC(=O)c3cc4c(F)ccc(C)c4[nH]3)C2)CC1` (centres unmarked) [compound 363], for which the IC50 is > 2000 nM.
Regarding `Cc1ccc(F)c2cc(C(=O)Nc3cccc(N4CCOc5ccccc54)c3)[nH]c12` [compound 547], the IC50 was > 25000 nM.
Take `CC(=O)N1[C@H](C)CN(c2cccc(NC(=O)c3cc4c(F)ccc(C)c4[nH]3)c2)C[C@H]1C` [compound 214]: the IC50 was determined as 500 nM.
`Cc1ccc(F)c2cc(C(=O)Nc3cccc(-c4nncn4C)c3)[nH]c12` [compound 237]: the IC50 was 600 nM.

The target of a further test is T1, SETD2(1434-1711) (Homo sapiens, UniProt Q9BYW2).
T1 construct: SETD2 (1434-1711) Assay; catalogue N/A
T1 sequence (Q9BYW2 1434-1711): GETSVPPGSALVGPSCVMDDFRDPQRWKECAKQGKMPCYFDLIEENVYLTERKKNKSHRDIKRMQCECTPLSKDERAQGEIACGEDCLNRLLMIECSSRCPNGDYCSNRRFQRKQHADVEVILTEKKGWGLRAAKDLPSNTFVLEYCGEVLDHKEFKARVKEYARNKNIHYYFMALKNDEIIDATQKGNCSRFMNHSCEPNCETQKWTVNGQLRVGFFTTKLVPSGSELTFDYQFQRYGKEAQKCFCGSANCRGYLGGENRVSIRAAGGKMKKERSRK
As to the kind of experiment: SETD2 (1434-1711) assay. The test is classed as biochemical. To be noted: read-out: SETD2 (1434-1711).
In the case of `CC(=O)N(C(C)C)C1CCN(C2CCC[C@@H](NC(=O)c3cc4c(F)ccc(C)c4[nH]3)C2)C1` (some centres unmarked) [compound 862], the IC50 came out at 400 nM.
Regarding `Cc1ccc(F)c2cc(C(=O)Nc3cc(F)cc(C4CCN(C5CCN(C)C5=O)C4)c3)[nH]c12` (centres unmarked) [compound 230], the IC50 was found to be 40 nM.
The same measure, in the same setting: next, `CCN1CCN(c2cccc(NC(=O)c3cc4c(F)ccc(C)c4[nH]3)c2)CC1=O` [compound 88]: 50 nM.
For the compound `Cc1ccc(F)c2cc(C(=O)Nc3cccc4cccnc34)[nH]c12` [compound 609], the IC50 was > 50000 nM.
In the case of `CC(=O)N1CC2CC1CN2C1CCCC(NC(=O)c2cc3c(F)ccc(C)c3[nH]2)C1` (centres unmarked) [compound 937], the IC50 is 6800 nM.
Still for that read-out and setting: the same measure for `Cc1ccc(F)c2cc(C(=O)Nc3ccc4cnc(CN5CCN(C)CC5)cc4c3)[nH]c12` [compound 409]: 100 nM.
Take `Cc1ccc(F)c2cc(C(=O)NC3CCCC(N4CCn5c(c[nH]c5=O)C4)C3)[nH]c12` (centres unmarked) [compound 1166]: the IC50 came out at 1000 nM.
Consider `COCCN(C(C)=O)C1CCN(C2CCCC(NC(=O)c3cc4c(F)ccc(C)c4[nH]3)C2)C1` (centres unmarked) [compound 843], for which the IC50 stood at 200 nM.
In the case of `Cc1ccc(F)c2cc(C(=O)Nc3cccc(N4CCN(C(=O)C5CC5)CC4)c3)[nH]c12` [compound 93], the IC50 was 60 nM.
`Cc1ccc(F)c2cc(C(=O)Nc3cc(F)cc(N4CCC(N5CCCC5=O)C4)c3)[nH]c12` (centres unmarked) [compound 18]: the IC50 was determined as 8 nM.
As for `Cc1ccc(F)c2cc(C(=O)Nc3cccc(N4CCC(N5CCC(N)CC5)C4)c3)[nH]c12` (centres unmarked) [compound 347], the IC50 came to 3 nM.
`Cc1cccnc1C(NC(=O)c1cc2cccc(C)c2[nH]1)C1CCC1` (centres unmarked) [compound 513]: the IC50 is 4000 nM.
Turning to `CC(=O)N1CCN(c2cccc(NC(=O)c3cc4c(F)ccc(C)c4[nH]3)c2)CC1C(F)(F)F` (centres unmarked) [compound 77], the IC50 is 60 nM.
On to `Cc1ccc(F)c2cc(C(=O)Nc3cc(F)cc([C@H]4CC[C@@H](N(C)C)CC4)c3)[nH]c12` [compound 69], for which the IC50 came out at 3 nM.
With `Cc1ccc(F)c2cc(C(=O)Nc3cccc(N4CCC5(CC4)CN(CC(F)(F)F)C5)c3)[nH]c12` [compound 110], the IC50 is 100 nM.
As for `Cc1ccc(F)c2cc(C(=O)Nc3cccc(N4CCC(N(C)C)(C(F)(F)F)CC4)c3)[nH]c12` [compound 375], the IC50 is > 10000 nM.
As to `Cc1cccnc1C(CN1CCOCC1)N(C)C(=O)c1cc2cccc(C)c2[nH]1` (centres unmarked) [compound 601], the IC50 is > 50000 nM.
Take `Cc1ccc(F)c2cc(C(=O)NC3CCCC(N4CCN5C(=O)COCC5C4)C3)[nH]c12` (centres unmarked) [compound 1141]: the IC50 amounted to 400 nM.
Still for that read-out and setting: the same measure for `CC(=O)N1CCN([C@@H]2CCC[C@@H](NC(=O)c3cc4cccc(C)c4[nH]3)C2)CC1` [compound 857]: 7400 nM; for `Cc1ccc(F)c2cc(C(=O)Nc3cccc(-c4cc5ccccn5n4)c3)[nH]c12` [compound 354]: 300 nM; for `Cc1cccc2cc(C(=O)NC3CC(NC(=O)CCN)C3)[nH]c12` (centres unmarked) [compound 597]: > 50000 nM.
As for `CC(=O)N1CCN(C2COCC(NC(=O)c3cc4c(F)ccc(C)c4[nH]3)C2)CC1` (centres unmarked) [compound 363], the IC50 stood at 1500 nM.
As to `Cc1ccc(F)c2cc(C(=O)Nc3cccc(N4CCOc5ccccc54)c3)[nH]c12` [compound 547], the IC50 amounted to 4000 nM.
`CC(=O)N1[C@H](C)CN(c2cccc(NC(=O)c3cc4c(F)ccc(C)c4[nH]3)c2)C[C@H]1C` [compound 214]: the IC50 was found to be 100 nM.
For `Cc1ccc(F)c2cc(C(=O)Nc3cccc(-c4nncn4C)c3)[nH]c12` [compound 237], the IC50 stood at 100 nM.
